Results taken from patent US6117840A, “CS-1 peptidomimetics, compositions and methods of using the same” (Cytel Corporation, priority 1997, dated 2000).
Square brackets hold non-standard residues; d marks the D form. Peptide text beside a SMILES is read from it. * marks the point of attachment. PhAc = O=C(Cc1ccccc1)*

Tests used:
BALB/c mice = assay: Adoptive transfer delayed type hypersensitivity in mice (oxazolone); type: in vivo, mouse; details: for swelling at challenge site (in words): 6 mg/kg/day s.c. pump for 24 hours
Procedure: An adoptive transfer delayedtype hypersensitivity murine model has been developed using splenic T cells primed to oxazolone. This model is described in Elices et al., Clin. Exp. Rheum., 11(Suppl. 8):577-580 (1993), whose procedures were followed here.
Thus, BALB/c mice were shaved on the belly and painted (50 μl on the belly and 5 μl on each paw) with three percent oxazolone in acetone/olive oil (4:1) at days zero and 1. At day 5, the mice were sacrificed, their spleens removed, and splenic T cells were obtained via nylon wool columns.
Normal saline or saline containing 25×10^6 /animal of the oxazoloneimmune T cells were separately injected into naive mice. The mic were then challenged by painting 10 μl of 2 percent oxazolone onto one ear each. All procedures were carried out under sterile conditions and in endotoxingfree buffers.
Prior to challenge or saline injection, the mice were implanted with pumps that subcutaneously administered normal saline, normal saline containing the peptide N--phenylacetyl--Leu--Asp--Phe--D--Pro--NH2 or normal saline containing a peptide with a scrambled sequence continually at 6 mg/kg/day for a 24-hour time period. The swelling diameter at the site of challenge or saline injection was measured with a microcaliper 24 hours thereafter.
An expanded study was carried out as described above except that a scrambled peptide control was not used using further inhibitor peptides o Table 1 with larger groups of mice. Statistical analyses were carried out versus injection of vehicle alone. Those results are shown below in Table 2.

[1] = test system: New Zealand white rabbits; assay: Rabbit cardiac allograft model; type: in vivo; details: for Expression on Coronary Arteries: ICAM-1 / Expression on Coronary Arteries: Macrophages / Expression on Coronary Arteries: T cells / Expression on Coronary Arteries: Total Fibronectin / Expression on Coronary Arteries: VCAM-1 / Vessel Intimal Thickening: Percent of Vessels / Vessel Intimal Thickening: Severity (Percent of Vessel area) / Expression on Coronary Arteries: MHC Class II: 1 mg/kg s.c., donor heart; for Expression on Coronary Arteries: MHC Class II: 7 to 8 days; as to Expression on Coronary Arteries: ICAM-1: key: -: negative; ±: minimal; +: little; ++: moderately abundant; +++: very abundant; as to Expression on Coronary Arteries: Macrophages: key: -: negative; ±: minimal; +: little; ++: moderately abundant; +++: very abundant; as to Expression on Coronary Arteries: T cells: key: -: negative; ±: minimal; +: little; ++: moderately abundant; +++: very abundant; as to Expression on Coronary Arteries: Total Fibronectin: key: -: negative; ±: minimal; +: little; ++: moderately abundant; +++: very abundant
Text: New Zealand white female rabbits (Charles River Lab., Saint Laurent, Quebec), between 3.5 and 4 kg underwent heterotopic cardiac transplant following an experimental protocol previously described [Alonso et al., Am. J. Pathol., 87:415-442 (1977); Clausell et al., Circulation, 89:2768-2779 (1994)] and approved by the Animal Care Committee of The Hospital for Sick Children, Toronto. The animals were […] to favor an HLA-mismatch, the host rabbits were Pasteurella-free and the donors, outbred animals. Both host and donor rabbits were fed Purina 5321-0.5 percent cholesterol diet (Research Diets Inc., New Brunswick, N.J.), a strategy that has proven useful in accelerating the process of allograft arteriopathy [Alonso et al., Am. J. Pathol., 87:415-442 (1977)]. The diet was commenced four days prior to the transplant and continued in the recipient of the transplant until the completion of the experimental period.
The technique of heterotopic cardiac transplantation has been previously described [Clausell et al., Circulation, 89:2768-2779 (1994)]. Briefly, a vertical incision was performed in the anterior aspect of the neck of the recipient rabbit and the left common carotid artery and the ipsilateral external jugular vein were isolated. The cardiac allograft was placed in the neck by anastomosing the aorta end-to-side to the recipient's carotid artery and the pulmonary end-to-side to the recipient's external jugular vein, following a total period of ischemia for the donor hearts of approximately 30 minutes. Postoperative care was in compliance with the Principles of Laboratory Animal Care formulated by the Canadian National Society for Medical Research.
Beginning the day of the transplant, the animals were randomized and treated with either scrambled peptide (control group) at 1 mg/kg s.c. or the inhibitor peptide at 1 mg/kg s.c. The doses of the peptides were empirically extrapolated to the in vivo model based on preliminary in vitro studies, of Table 1. No other immunosuppression therapy was administered. The grafts were monitored daily by palpation and maintained for 7 to 8 days, a previously described endpoint that was associated with myocardial rejection (impaired cardiac contractility) and development of the allograft arteriopathy in this model [Clausell et al., Circulation, 89:2768-2779 (1994)]. A total of fourteen animals were studied in the control (n=7) and treated (n=7) groups.
The animals were sacrificed using a lethal dose of euthanol (480 mg i.v.) (MTC Pharmaceutical, Cambridge, ON), host and donor hearts were removed, and the coronary arteries were perfused with saline through the aorta, followed by light fixation by perfusion with 2 percent paraformaldehyde (Sigma, St, Louis, Mo.). […] Different sections of the hearts were either saved in 10 percent formalin (BDH Inc., Toronto, ON) for light microscopy studies or immediately frozen in O.T.C. Compound Tissue Tek (Miles Inc., Elkart, Ind.) for specific immunohistochemistry studies.
Three different paraffin-embedded tissue sections from host and donor hearts from both control and treated rabbits were stained by the Movat pentachrome method for light microscopy. Morphometric analysis was performed using a Zeiss microscope attached to a computer-generated video analysis system (Perceptics Inc., NuVision software), as described in Clausell et al., Circulation, 89:2768-2779 (1994). The number of vessels with intimal lesions were counted in all three heart sections from each animal studied and are expressed as a percentage of the total vessel number.
In the host hearts, 999 vessels in the control group and 1054 vessels in the treated group were analyzed. In the donor hearts, 827 vessels in the control group and 617 vessels in the treated group were analyzed. […]

SJL/J mice = assay: Experimental autoimmune encephalomyelitis in mice; type: in vivo; details: 1 mg/mouse i.p. at days 8 and 9; versus scrambled control peptide
Procedure: EAE was induced in female SJL/J mice (8 to 14 weeks old) by immunization on day zero with 50 μg of a peptide corresponding to positions 139-151 of PLP emulsified in a 1:1 mixture of PBS and complete Freund's adjuvant (CFA). Each mouse was injected with 0.2 ml of the adjuvant emulsion subcutaneously (s.c.) at two sites in the hind flank. All mice received 10^7 killed Bordetella pertussis units in 100 μl were injected intravenously 24 to 72 hours later.
Mice were observed daily, beginning at day 8 for clinical signs of EAE, and disease was scored on a scale of 0-5 as: 0=no disease; 1=floppy tail; 2=moderate hind limb weakness; 3=paraparesis; 4=paraplegis with moderate forelimb weakness; 5=qualdriplegis or premoribund state.
The inhibitor peptide N--phenylacetyl--Leu--Asp--Phe--D--Pro--NH2 was administered intraperitoneally at 1 mg/mouse in 0.2 ml of incomplete Freund's adjuvant at days 8 and 9. A peptide having a scrambled sequence [N--phenylacetyl--Asp--Leu--Phe--D--Pro--NH2 ] was similarly administered to serve as a control.
Summed or averaged scores for clinical signs were plotted vs. time. The area under the resulting curves was calculated between day 8 and day 35 to calculate percentage inhibition of EAE by an inhibitor peptide. The percent inhibition was calculated as follows: [formula]

SMILES	swelling at challenge site (in words) (BALB/c mice)	Expression on Coronary Arteries: ICAM-1 [1]	Expression on Coronary Arteries: Macrophages [1]	Expression on Coronary Arteries: T cells [1]	Expression on Coronary Arteries: Total Fibronectin [1]	Expression on Coronary Arteries: VCAM-1 [1]	Vessel Intimal Thickening: Percent of Vessels [1]	Vessel Intimal Thickening: Severity (Percent of Vessel area) [1]	Expression on Coronary Arteries: MHC Class II [1]	Baseline (rabbit own host heart) of incidence [1]	Baseline (rabbit own host heart) of severity [1]	Percent Inhibition (BALB/c mice; expanded study, 6 mg/kg/day, versus vehicle)	clinical signs of EAE (SJL/J mice)
CC(C)C[C@H](NC(=O)[C@H](CC(=O)O)NC(=O)Cc1ccccc1)C(=O)N[C@@H](Cc1ccccc1)C(=O)N1CCC[C@@H]1C(N)=O [X L D F p phenylacetyl amide scrambled, N--phenylacetyl--Asp--Leu--Phe--D--Pro--NH2, reference compound] (PhAc-DLF[dP]-NH2)	no reduction of inflammation	+	+	++	++	+	88%	36%	++	1%	12%	–	–
CC(C)C[C@H](NC(=O)Cc1ccccc1)C(=O)N[C@@H](CC(=O)O)C(=O)N[C@@H](Cc1ccccc1)C(=O)N1CCC[C@@H]1C(N)=O [X L D F p phenylacetyl amide, N--phenylacetyl--Leu--Asp--Phe--D--Pro--NH2] (PhAc-LDF[dP]-NH2)	reduced thi type of CS1/VLA-4-mediated immunoinflammation	±	±	±	±	±	35%	16%	±	12%	12%	36%	marked improvement in clinical signs
